Several values for one entry are separate records, joined by “and”; a condition that tells them apart may be missing. Identical values can stand only once.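 Cultured in 96-well plates, cells were exposed to test compound for 48 hours across five concentrations. GI50: concentration for 50% inhibition of growth.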 Activity calls are given as the source filed them. Rule as the data show it: active = GI50 up to about 1.1 µM and inactive = higher.

The values that follow come from ChEMBL document CHEMBL1201862, “PubChem BioAssay data set” (2004).

Common to all, as to experiment: NCI anticancer screen, dose series, 48 h
The subject of assay [1] is OVCAR-8.
The test system of assay [2] is HCT-15.
Assay [3] concerns SF-268.
The test system of assay [4] is HOP-62.
The subject of assay [5] is UACC-257.
For assay [6], the system named is IGROV-1.
Assay [7] deals with SN12C.
The test system of assay [8] is SF-539.
Assay [9] has as its system OVCAR-3.
Assay [10] concerns HT-29.
For assay [11], the system named is OVCAR-5.
Assay [12] deals with ACHN.
In assay [13] the test system is A498.
Assay [14] relates to OVCAR-4.
Assay [15] relates to M14.
The test system of assay [16] is UO-31.
Assay [17] has as its system SF-295.
Assay [18] concerns LOX IMVI.

For the compound `O=C(Cc1ccccc1)NN1C(=O)/C(=C\c2cccc(O)c2)S/C1=N\c1ccccc1`, the GI50 in [1] is > 100 µM (inactive); in assay [2], more than 100 µM; in assay [3], > 100 µM (inactive); in [4], > 100 µM (inactive); in assay [5] it was > 100 µM (inactive); in assay [6], > 100 µM (inactive). Also, the GI50 was > 100 µM (inactive) in assay [7]; > 100 µM (inactive) in assay [8]; 83.4 µM (inactive) in [9]; > 100 µM (inactive) in assay [10]; > 100 µM (inactive) in [11]; > 100 µM (inactive) in assay [12]. The GI50 is > 100 µM (inactive) in assay [13]; > 100 µM (inactive) in assay [14]; > 100 µM (inactive) in assay [15]; 55.8 µM (inactive) in assay [16]; > 100 µM (inactive) in assay [17].

Take `COc1cccc(NC(=O)C(C#N)=C(SC)SC)c1`: the GI50 in assay [1] was > 100 µM (inactive); in assay [2] it was more than 100 µM; in assay [3], > 100 µM (inactive); in assay [4] it was > 100 µM (inactive); in assay [5] it was > 100 µM (inactive); in [6], > 100 µM (inactive). In addition, the GI50 in assay [7], in [18], in assay [8], in assay [10], in assay [11] and in assay [12] was > 100 µM (inactive) each time. Moreover, the GI50 in [13], in [14], in assay [15] and in assay [17] was > 100 µM (inactive) throughout.

With `COc1ccc2c(c1)nc1n2C(N)=Nc2ccccc2S1`, the GI50 in assay [1] is 18.4 µM (inactive); in assay [2], 35.4 µM; in assay [3], 16.7 µM (inactive); in [4], 53.1 µM (inactive); in [5], 32.5 µM (inactive); in assay [6], 3.75 µM (inactive). Further, the GI50 was 44.6 µM (inactive) in assay [7]; 11.8 µM (inactive) in assay [18]; 33.4 µM (inactive) in [8]; 5.55 µM (inactive) in assay [9]; 17.7 µM (inactive) in [10]; 36.6 µM (inactive) in assay [11]. Besides, the GI50 in [12] is 29.6 µM (inactive); in assay [13], 37.1 µM (inactive); in [14] it was 34.4 µM (inactive); in assay [15], 10.6 µM (inactive); in assay [16] it was 26.4 µM (inactive); in [17] it was 44.2 µM (inactive).

Take `NC12CC3CC4C1CC1CC2C(C3)C4(N)C1`: the GI50 in [1] is > 100 µM (inactive); in assay [2] it was more than 100 µM; in assay [3] it was > 100 µM (inactive); in assay [4], > 100 µM (inactive); in assay [5], > 100 µM (inactive); in [6], > 100 µM (inactive). Also, the GI50 in assay [7], in [18], in [9], in assay [10], in [11] and in assay [12] was > 100 µM (inactive) in each case. For the same compound, the GI50 in assay [13], in assay [14], in [15], in assay [16] and in assay [17] was > 100 µM (inactive) throughout.

On to `Cc1cc2[nH]c3c(C#N)c(-c4ccccc4)c(/C=N/c4ccc(Cl)cc4)c(=O)n3c2cc1C`, for which the GI50 in assay [1] was > 100 µM (inactive); in assay [2], more than 100 µM; in assay [3] it was > 100 µM (inactive); in [4], > 100 µM (inactive); in [5] it was > 100 µM (inactive); in assay [7], > 100 µM (inactive). Moreover, the GI50 in assay [18], in assay [8], in assay [9], in [11], in [12] and in [13] was > 100 µM (inactive) each time. In addition, the GI50 in assay [14], in [15], in assay [16] and in [17] was > 100 µM (inactive) each time.

Take `O=C1c2ccccc2-c2c1c(-c1ccccc1)c1n2C2(C(=O)c3ccccc3C2=O)C2C(=O)N(c3ccccc3)C(=O)C12` (stereo not drawn): the GI50 in assay [1] is 32.2 µM (inactive); in assay [2] it was 16.4 µM; in assay [3], 21.1 µM (inactive); in assay [4] it was 26.3 µM (inactive); in assay [5] it was 30.6 µM (inactive); in assay [6], 32.3 µM (inactive). Moreover, the GI50 in [7] was 19.9 µM (inactive); in assay [18] it was 17 µM (inactive); in [8], 15.4 µM (inactive); in [9] it was 24.3 µM (inactive); in [10], 17.7 µM (inactive); in [11], 17.4 µM (inactive). The GI50 was 31.9 µM (inactive) in assay [12]; 28.1 µM (inactive) in assay [13]; 31.4 µM (inactive) in assay [14]; 34.1 µM (inactive) in assay [15]; 28.4 µM (inactive) in assay [16]; 34.4 µM (inactive) in [17].

In the case of `CCCc1c[nH]c(-c2ccc(-c3cc(CCC)c(C=O)[nH]3)s2)c1`, the GI50 in assay [1] is 13.6 µM (inactive); in assay [2] it was 14.6 µM; in [3], 18.3 µM (inactive); in assay [5], 17.3 µM (inactive); in [6], 30.4 µM (inactive); in [7], 15.6 µM (inactive). Further, the GI50 in assay [18] was 14 µM (inactive); in [8] it was 18.7 µM (inactive); in assay [9], 17 µM (inactive); in [10] it was 5.38 µM (inactive); in assay [12] it was 19.2 µM (inactive); in assay [13] it was 7.82 µM (inactive). Besides, the GI50 in assay [14] is 18.9 µM (inactive); in assay [15], 12.1 µM (inactive); in [16], 0.0165 µM (active); in assay [17], 18.9 µM (inactive).

For the compound `Cc1ccc(NC(=O)/C(CC2Nc3c(ccc4c3C(=O)c3ccccc3C4=O)NC2O)=N/NC(C)(C)C)cc1` (stereo not drawn), the GI50 in assay [1] is 6.52 µM (inactive); in assay [2], 5.79 µM; in [3] it was 10.4 µM (inactive); in assay [4], 13.8 µM (inactive); in [5], 16.1 µM (inactive); in assay [6], 8.07 µM (inactive). Also, the GI50 is 12.6 µM (inactive) in assay [7]; 7.23 µM (inactive) in [18]; 7.59 µM (inactive) in assay [8]; 18.7 µM (inactive) in [9]; 16.4 µM (inactive) in assay [10]; 26.5 µM (inactive) in [11]. Moreover, the GI50 in assay [12] is 12.4 µM (inactive); in assay [14], 17.7 µM (inactive); in [15], 18.7 µM (inactive); in assay [16], 3.7 µM (inactive); in assay [17] it was 27.9 µM (inactive).

As for `Cc1ccc2c(=O)cc(Cc3csc4ccccc34)[nH]c2n1`, the GI50 was 36 µM (inactive) in assay [1]; 12.1 µM in assay [2]; 21.3 µM (inactive) in [3]; 59.2 µM (inactive) in [4]; 38.6 µM (inactive) in assay [5]; 11.7 µM (inactive) in [6]. For the same compound, the GI50 in [7] is 42.9 µM (inactive); in assay [18] it was 17.5 µM (inactive); in assay [9], 28.8 µM (inactive); in assay [10], 35.1 µM (inactive); in assay [11] it was 60 µM (inactive); in [13], 32.3 µM (inactive). Further, the GI50 in assay [14] was 21.1 µM (inactive); in assay [15], 32 µM (inactive); in assay [16], 22.4 µM (inactive); in [17], 26 µM (inactive).

On to `O=S(=O)(O)c1cc(S(=O)(=O)O)c2cc(/N=N/c3c(O)ccc4ccccc34)ccc2c1`, for which the GI50 in assay [1] was > 100 µM (inactive); in assay [2] it was more than 100 µM; in assay [3], > 100 µM (inactive); in assay [4] it was > 100 µM (inactive); in assay [5], > 100 µM (inactive); in assay [6] it was > 100 µM (inactive). Further, the GI50 in assay [7], in assay [18], in assay [9], in [10], in assay [11] and in [12] was > 100 µM (inactive) throughout. Besides, the GI50 in assay [14], in assay [15], in assay [16] and in [17] was > 100 µM (inactive) each time.

In the case of `O=C(/C=C/c1ccccc1)c1ccccn1`, the GI50 in assay [1] was 17.6 µM (inactive) and 25.1 µM (inactive); in [2], 11.8 µM and 18.5 µM; in [5], 13.2 µM (inactive) and 16.4 µM (inactive); in assay [6], 10.5 µM (inactive) and 17.4 µM (inactive); in assay [7], 14.3 µM (inactive) and 17.2 µM (inactive); in [18] it was 10.9 µM (inactive) and 17.6 µM (inactive). The GI50 in [8] was 17.8 µM (inactive); in assay [9], 12.7 µM (inactive) and 16.4 µM (inactive); in [10], 20.7 µM (inactive) and 15.5 µM (inactive); in assay [12], 15.5 µM (inactive) and 16.9 µM (inactive); in assay [13], 13 µM (inactive) and 17.5 µM (inactive); in assay [14], 17.3 µM (inactive) and 20.6 µM (inactive). The GI50 is 14.5 µM (inactive) in [15]; 17.3 µM (inactive) and 20.6 µM (inactive) in assay [16]; 24 µM (inactive) and 18.4 µM (inactive) in assay [17].

On to `CCCCCCOC(=O)/C=C/[C@]1(CO)C/C(=C/CC(C(C)C)C(C)C)C(=O)O1`, for which the GI50 in assay [1] is 16.7 µM (inactive); in assay [2], 14.6 µM; in assay [3], 10.9 µM (inactive); in assay [4], 8.41 µM (inactive); in assay [5], 16.5 µM (inactive); in [6], 15.1 µM (inactive). Moreover, the GI50 is 10.6 µM (inactive) in assay [18]; 11.9 µM (inactive) in assay [9]; 7.33 µM (inactive) in assay [10]; 11.6 µM (inactive) in [11]; 6.95 µM (inactive) in assay [12]; 4.82 µM (inactive) in assay [13]. The GI50 in assay [14] is 19.1 µM (inactive); in [15] it was 12.1 µM (inactive); in [16], 4.46 µM (inactive); in assay [17], 10.4 µM (inactive).
